# Assay results reported in patent US20260014147A1, “STAT6 DEGRADERS” (Gilead Sciences, Inc., priority 2024, published 2026).
# Target: T1, STAT6 (endogenous, HiBiT-tagged) in HeLa LgBiT clone 4.14 cells (Homo sapiens, UniProt P42226)
# T1 construct: These cells express endogenous STAT6; host or cells: HeLa LgBiT clone 4.14
# T1 sequence (P42226 1-847): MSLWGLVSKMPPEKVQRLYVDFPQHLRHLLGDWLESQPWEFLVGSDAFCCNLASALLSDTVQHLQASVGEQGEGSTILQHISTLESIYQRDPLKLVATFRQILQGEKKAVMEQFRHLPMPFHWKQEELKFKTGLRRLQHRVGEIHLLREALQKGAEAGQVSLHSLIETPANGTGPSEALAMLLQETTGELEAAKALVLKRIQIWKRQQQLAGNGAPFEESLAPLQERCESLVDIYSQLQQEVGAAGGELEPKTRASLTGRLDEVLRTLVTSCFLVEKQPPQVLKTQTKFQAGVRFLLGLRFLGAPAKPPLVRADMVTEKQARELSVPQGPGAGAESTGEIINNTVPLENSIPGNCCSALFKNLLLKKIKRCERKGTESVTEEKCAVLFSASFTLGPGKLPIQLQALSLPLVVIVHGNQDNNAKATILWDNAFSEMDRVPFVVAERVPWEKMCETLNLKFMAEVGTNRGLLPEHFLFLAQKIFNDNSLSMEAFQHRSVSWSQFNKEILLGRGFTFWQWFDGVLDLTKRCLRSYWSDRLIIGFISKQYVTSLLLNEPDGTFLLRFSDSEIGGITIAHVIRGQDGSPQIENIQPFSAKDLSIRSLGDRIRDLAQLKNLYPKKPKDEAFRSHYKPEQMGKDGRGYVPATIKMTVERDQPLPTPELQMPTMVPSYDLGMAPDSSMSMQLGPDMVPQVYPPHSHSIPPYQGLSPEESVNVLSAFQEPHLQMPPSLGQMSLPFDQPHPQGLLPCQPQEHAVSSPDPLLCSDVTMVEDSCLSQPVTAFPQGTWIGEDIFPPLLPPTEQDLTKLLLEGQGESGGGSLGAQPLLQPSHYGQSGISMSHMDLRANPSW
# Assay: STAT6 Degrader Assay (HiBiT based, HeLa LgBiT clone 4.14 cells, luminescence, DC50)
# Type: cell-based
# Conditions: DC50 provided for test compounds with >80% Emax, geometric mean, read-out: STAT6 degradation DC50
# Protocol: This was a HiBit based assay. A HeLa cell line stably transfected with a small protein, LgBit (Large Bit) was obtained from Promega. These cells express endogenous STAT6. A small 11 amino acid gene sequence (HiBiT) was inserted in the STAT6 gene using CRISPR technology. Once STAT6 protein is expressed in the cells, the HiBiT sequence will bind the LgBit in the cells resulting in a functional NanoBiT protein, giving a luminescent tag to STAT6. Single cell clones were prepared and the clone 4.14 was selected for the assay based on that clone showing high luminescence, high STAT6 phosphorylation upon stimulation with IL-4, and inhibition of luminescence when cells were treated with STAT6 siRNA. HeLa LgBiT clone 4.14 cells were suspended in DMEM with 10% FCS, 1% Pen/Strep, Na-pyrovate and Hygromycin B, at a concentration of […]. 5000 cells were added pr well of a 384 well plate and 20 nL of compound was added by Echo® liquid handler. NN6394A (terfenadine, a toxic compound) was added to control wells at 50 µM concentration to establish the assay window. In these wells the cells are dead which equals 100% degradation of STAT6. After 4-24 h of incubation at 37° C. under 5% CO2/95% air, […] substrate (Nano-GLO®) was added to the wells and the plates were centrifuged and incubated for 0.5 h. The luminescence in the wells as a measure of non-degraded STAT6 was measured in a plate reader (BMG Pherastar FSX). The dose-response curves for Examples 2a2, 2t1, 2 h3, and 2r1 are shown below (where percent degradation is plotted vs. test compound concentration in M on a log-scale).
row,DC50 [nM],SMILES
1,2.7,"C[C@@H](c1cc2c(-c3ccc4[nH]ncc4c3)ccnc2n1C)N1CCC(c2ccc(C(=O)N3CCC(CN4CCN(c5ccc(NC6CCC(=O)NC6=O)cc5F)CC4)CC3)cc2)CC1 (stereo partly drawn) [Example 2c17, 3-((4-(4-((1-(4-(1-((S)-1-(4-(1H-indazol-5-yl)-1-methyl-1H-pyrrolo[2,3-b]pyridin-2-yl)-ethyl)piperidin-4-yl)benzoyl)piperidin-4-yl)methyl)piperazin-1-yl)-3-fluorophenyl)amino)piperidine-2,6-dione]"
2,0.7,"COc1cc(C2CCN(Cc3cc4n(n3)CCN(C(=O)c3ccc(C5CCN([C@@H](C)c6cc7c(-c8ccc(N)nc8)ccnc7n6C)CC5)cc3)C4)CC2)ccc1NC1CCC(=O)NC1=O (stereo partly drawn) [Example 2c44, 3-((4-(1-((5-(4-(1-((S)-1-(4-(6-aminopyridin-3-yl)-1-methyl-1H-pyrrolo[2,3-b]pyridin-2-yl)ethyl)piperidin-4-yl)benzoyl)-4,5,6,7-tetrahydropyrazolo[1,5-a]pyrazin-2-yl)methyl)piperidin-4-yl)-2-methoxyphenyl)amino)piperidine-2,6-dione]"

# Same assay, conditions: Emax provided for test compounds with <80% Emax (and 2c15), geometric mean, read-out: STAT6 degradation Emax
row,SMILES,Emax [%]
1,"Cc1cc(C(=O)N2CCC(CN3CCN(c4ccc(NC5CCC(=O)NC5=O)cc4F)CC3)CC2)cc(C)c1C1=CCN(Cc2cc3c(-c4ccc(N)nc4)ccnc3n2C)CC1 (stereo not shown) [Example 2c15, 3-((4-(4-((1-(4-(1-((4-(6-aminopyridin-3-yl)-1-methyl-1H-pyrrolo[2,3-b]pyridin-2-yl)methyl)-1,2,3,6-tetrahydropyridin-4-yl)-3,5-dimethylbenzoyl)piperidin-4-yl)methyl)piperazin-1-yl)-3-fluorophenyl)amino)piperidine-2,6-dione]",80 to 90
2,"Cn1c(CN2CCC(c3ccc(C(=O)N4CCC(CN5CCN(c6c(F)cc(NC7CCC(=O)NC7=O)cc6F)CC5)CC4)cc3)CC2)cc2c(-c3ccc4[nH]ncc4c3)ccnc21 (stereo not shown) [Example 2c34, 3-((4-(4-((1-(4-(1-((4-(1H-indazol-5-yl)-1-methyl-1H-pyrrolo[2,3-b]pyridin-2-yl)methyl)-piperidin-4-yl)benzoyl)piperidin-4-yl)methyl)piperazin-1-yl)-3,5-difluorophenyl)amino)piperidine-2,6-dione]",70 to 80
3,"Cn1c(CN2CC=C(c3ccc(C(=O)N4CCn5nc(CN6CCC(c7ccc(NC8CCC(=O)NC8=O)cc7F)CC6)cc5C4)cn3)CC2)cc2c(-c3ccc(N)nc3)ccnc21 (stereo not shown) [Example 2c37, 3-((4-(1-((5-(1′-((4-(6-aminopyridin-3-yl)-1-methyl-1H-pyrrolo[2,3-b]pyridin-2-yl)methyl)-1′, 2′, 3′, 6′-tetrahydro-[2,4′-bipyridine]-5-carbonyl)-4,5,6,7-tetrahydropyrazolo[1,5-a]pyrazin-2-yl)methyl)piperidin-4-yl)-3-fluorophenyl)amino)piperidine-2,6-dione]",< 20
4,"Cn1c(CN2CC=C(c3ccc(C(=O)N4CCn5nc(CN6CCC(c7ccc(NC8CCC(=O)NC8=O)cc7F)CC6)cc5C4)cn3)CC2)cc2c(-c3ccc(N)nn3)ccnc21 (stereo not shown) [Example 2c38, 3-((4-(1-((5-(1′-((4-(6-aminopyridazin-3-yl)-1-methyl-1H-pyrrolo[2,3-b]pyridin-2-yl)methyl)-1′, 2′, 3′, 6′-tetrahydro-[2,4′-bipyridine]-5-carbonyl)-4,5,6,7-tetrahydropyrazolo[1,5-a]pyrazin-2-yl)methyl)piperidin-4-yl)-3-fluorophenyl)amino)piperidine-2,6-dione]",< 20
5,"Cn1c(CN2CCN(c3ccc(C(=O)N4CCC(CN5CCN(c6ccc(NC7CCC(=O)NC7=O)cc6F)CC5)CC4)cc3)CC2)cc2c(-c3ccc(N)nc3)ccnc21 (stereo not shown) [Example 2c39, 3-((4-(4-((1-(4-(4-((4-(6-aminopyridin-3-yl)-1-methyl-1H-pyrrolo[2,3-b]pyridin-2-yl)methyl)piperazin-1-yl)benzoyl)piperidin-4-yl)methyl)piperazin-1-yl)-3-fluorophenyl)amino)piperidine-2,6-dione]",< 20

# Next, values leading:
row,Emax [%],SMILES
1,< 20,"Cc1cc(C(=O)N2CCn3nc(CN4CCC(c5ccc(NC6CCC(=O)NC6=O)cc5F)CC4)cc3C2)cnc1C1=CCN(Cc2cc3c(-c4ccc(N)nn4)ccnc3n2C)CC1 (stereo not shown) [Example 2c48, 3-((4-(1-((5-(1′-((4-(6-aminopyridazin-3-yl)-1-methyl-1H-pyrrolo[2,3-b]pyridin-2-yl)methyl)-3-methyl-1′, 2′, 3′, 6′-tetrahydro-[2,4′-bipyridine]-5-carbonyl)-4,5,6,7-tetrahydropyrazolo[1,5-a]pyrazin-2-yl)methyl)piperidin-4-yl)-3-fluorophenyl)amino)piperidine-2,6-dione]"
2,< 20,"COCc1nc2cc(-c3ccnc4c3cc(CN3CCC(c5ccc(C(=O)N6CCC(CN7CCN(Cc8ccc(-n9cc(N%10CCC(=O)NC%10=O)nn9)cc8)CC7)CC6)cc5)CC3)n4C)ccc2[nH]1 [Example 2c56, 1-(1-(4-((4-((1-(4-(1-((4-(2-(methoxymethyl)-1H-benzo[d]imidazol-5-yl)-1-methyl-1H-pyrrolo[2,3-b]pyridin-2-yl)methyl)piperidin-4-yl)benzoyl)piperidin-4-yl)methyl)piperazin-1-yl)methyl)-phenyl)-1H-1,2,3-triazol-4-yl) dihydropyrimidine-2,4 (1H,3H)-dione]"
3,< 20,"CNc1ccc(-c2ccnc3c2cc([C@@H](C)N2CC=C(c4c(C)cc(C(=O)N5CCC(CCn6cc(-c7ccc(NC8CCC(=O)NC8=O)cc7)nn6)CC5)cc4F)CC2)n3C)cn1 (stereo partly drawn) [Example 2c57, 3-((4-(1-(2-(1-(3-fluoro-5-methyl-4-(1-((R)-1-(1-methyl-4-(6-(methylamino)pyridin-3-yl)-1H-pyrrolo[2,3-b]pyridin-2-yl)ethyl)-1,2,3,6-tetrahydropyridin-4-yl)benzoyl)piperidin-4-yl)ethyl)-1H-1,2,3-triazol-4-yl)phenyl)amino)piperidine-2,6-dione]"
4,50 to 60,"Cn1c(CN2CCC(c3ccc(C(=O)N4CCC(CN5CCN(c6ccc(C(=O)NC7CCC(=O)NC7=O)nn6)CC5)CC4)cc3)CC2)cc2c(-c3ccc4[nH]ncc4c3)ccnc21 (stereo not shown) [Example 2d1, 6-(4-((1-(4-(1-((4-(1H-indazol-5-yl)-1-methyl-1H-pyrrolo[2,3-b]pyridin-2-yl)methyl)-piperidin-4-yl)benzoyl)piperidin-4-yl)methyl)piperazin-1-yl)-N-(2,6-dioxopiperidin-3-yl) pyridazine-3-carboxamide]"
5,< 20,"Cn1c(CN2CCC(c3ccc(C(=O)N4CCC(CN5CCN(C(=O)c6ccc(NC7CCC(=O)NC7=O)cc6F)CC5)CC4)cc3)CC2)cc2c(-c3ccc(N)nc3)ccnc21 (stereo not shown) [Example 2e2, 3-((4-(4-((1-(4-(1-((4-(6-aminopyridin-3-yl)-1-methyl-1H-pyrrolo[2,3-b]pyridin-2-yl)methyl)-piperidin-4-yl)benzoyl)piperidin-4-yl)methyl)piperazine-1-carbonyl)-3-fluorophenyl)amino)piperidine-2,6-dione]"
6,20 to 30,"C[C@H]1CN(c2ccc(NC3CCC(=O)NC3=O)cc2F)CCN1CC1CCN(C(=O)c2ccc(C3CCN(Cc4cc5c(-c6ccc(N)nc6)ccnc5n4C)CC3)cc2)CC1 (stereo partly drawn) [Example 2f3, 3-((4-((S)-4-((1-(4-(1-((4-(6-aminopyridin-3-yl)-1-methyl-1H-pyrrolo[2,3-b]pyridin-2-yl)methyl)piperidin-4-yl)benzoyl)piperidin-4-yl)methyl)-3-methylpiperazin-1-yl)-3-fluorophenyl)amino)-piperidine-2,6-dione]"
